Experimental data published in patent US11267812B2 (Mirati Therapeutics, Inc., priority 2016, dated 2022).

Tested on: Phospho-ERK in NCI-H358 cells expressing KRas G12C
Assay: Cellular inhibition of KRas G12C by Phospho-ERK measurement in NCI-H358 cells
Format: cell-based
Conditions: Homo sapiens; NCI-H358 cells, 3 hours compound treatment; read-out: IC50 (pERK(Thr202/Tyr204) normalized with GAPDH)
Procedure, shortened: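 After 8–12 h attachment, NCI-H358 cells were treated with compounds for 3 h (0.5% DMSO final), fixed, methanol-permeabilized and immunostained. pERK(Thr202/Tyr204) was read by infrared imaging and normalized to GAPDH as percent of DMSO control. IC50 came from a 4-parameter fit.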

SMILES | IC50
C=CC(=O)N1CCN(c2nc(OC[C@@H]3CCCN3C)nc3c2CCN(c2cccc4cc(F)ccc24)C3)CC1CC#N (stereo partly drawn) [Example 259, 2-[4-[7-(6-fluoro-1-naphthyl)-2-[[(2S)-1-methylpyrrolidin-2-yl]methoxy]-6,8-dihydro-5H-pyrido[3,4-d]pyrimidin-4-yl]-1-prop-2-enoyl-piperazin-2-yl]acetonitrile] | 1 to 1000 nM
C=CC(=O)N1CCN(c2nc(OC[C@H]3CN(C)CCN3)nc3c2CCN(c2cccc4ccccc24)C3)CC1CC#N (stereo partly drawn) [Example 224, 2-(1-acryloyl-4-(2-(((R)-4-methylpiperazin-2-yl)methoxy)-7-(naphthalen-1-yl)-5,6,7,8-tetrahydropyrido[3,4-d]pyrimidin-4-yl)piperazin-2-yl)acetonitrile] | 1 to 1000 nM
C=CC(=O)N1CCN(c2nc(O[C@H](C)[C@H]3CCCN3C)nc3c2CCN(c2cc(O)cc4ccccc24)C3)CC1 [Example 129, 1-[4-[7-(3-hydroxy-1-naphthyl)-2-[(1R)-1-[(2R)-1-methylpyrrolidin-2-yl]ethoxy]-6,8-dihydro-5H-pyrido[3,4-d]pyrimidin-4-yl]piperazin-1-yl]prop-2-en-1-one] | 1 to 1000 nM
C=CC(=O)N1CCN(c2nc(OC[C@@H]3CCN(C)C3)nc3c2CCN(c2cc(O)cc4ccccc24)C3)CC1 [Example 110, (R)-1-(4-(7-(3-hydroxynaphthalen-1-yl)-2-((1-methylpyrrolidin-3-yl)methoxy)-5,6,7,8-tetrahydropyrido[3,4-d]pyrimidin-4-yl)piperazin-1-yl)prop-2-en-1-one] | 1 to 1000 nM
C=CC(=O)N1CCN(c2nc(OC[C@H]3CCCN3C)nc3c2CCN(c2cccc(F)c2C(F)(F)F)C3)C[C@@H]1CC#N [Example 274, 2-((S)-1-acryloyl-4-(7-(3-fluoro-2-(trifluoromethyl)phenyl)-2-(((R)-1-methylpyrrolidin-2-yl)methoxy)-5,6,7,8-tetrahydropyrido[3,4-d]pyrimidin-4-yl)piperazin-2-yl)acetonitrile] | 1 to 1000 nM
C=CC(=O)N1CCN(c2nc(OC[C@@H]3CCCN(C)C3)nc3c2CCN(c2cc(O)cc4ccccc24)C3)CC1 [Example 192, (R)-1-(4-(7-(3-hydroxynaphthalen-1-yl)-2-((1-methylpiperidin-3-yl)methoxy)-5,6,7,8-tetrahydropyrido[3,4-d]pyrimidin-4-yl)piperazin-1-yl)prop-2-en-1-one] | 1 to 1000 nM
C=CC(=O)N1CCN(c2nc(OC[C@@H]3C[C@H](OC)CN3C)nc3c2CCN(c2cccc4ccccc24)C3)CC1CC#N (stereo partly drawn) [Example 222, 2-(1-acryloyl-4-(2-(((2S,4S)-4-methoxy-1-methylpyrrolidin-2-yl)methoxy)-7-(naphthalen-1-yl)-5,6,7,8-tetrahydropyrido[3,4-d]pyrimidin-4-yl)piperazin-2-yl)acetonitrile] | 1 to 1000 nM
C=CC(=O)N1CCN(c2nc(OCCN3CCCC[C@H]3C)nc3c2CCN(c2cc(O)cc4ccccc24)C3)CC1 [Example 97, (R)-1-(4-(7-(3-hydroxynaphthalen-1-yl)-2-(2-(2-methylpiperidin-1-yl)ethoxy)-5,6,7,8-tetrahydropyrido[3,4-d]pyrimidin-4-yl)piperazin-1-yl)prop-2-en-1-one] | 1 to 1000 nM
C=CC(=O)N1CCN(c2nc(O[C@H](C)CN3CCCCC3)nc3c2CCN(c2cc(O)cc4ccccc24)C3)CC1 [Example 75, (R)-1-(4-(7-(3-hydroxynaphthalen-1-yl)-2-((1-(piperidin-1-yl)propan-2-yl)oxy)-5,6,7,8-tetrahydropyrido[3,4-d]pyrimidin-4-yl)piperazin-1-yl)prop-2-en-1-one] | 1 to 1000 nM
CN(C)C/C=C/C(=O)N1CCN(c2nc(OC[C@@H]3CCCN3C)nc3c2CCN(c2cccc4ccccc24)C3)C[C@@H]1CC#N [Example 235, 2-((S)-1-((E)-4-(dimethylamino)but-2-enoyl)-4-(2-(((S)-1-methylpyrrolidin-2-yl)methoxy)-7-(naphthalen-1-yl)-5,6,7,8-tetrahydropyrido[3,4-d]pyrimidin-4-yl)piperazin-2-yl)acetonitrile] | 1 to 1000 nM
C=CC(=O)N1CCN(c2nc(OC[C@@H]3CCCN3C)nc3c2CCN(c2ccccc2Cl)C3)CC1CC#N (stereo partly drawn) [Example 229, 2-(1-acryloyl-4-(7-(2-chlorophenyl)-2-(((S)-1-methylpyrrolidin-2-yl)methoxy)-5,6,7,8-tetrahydropyrido[3,4-d]pyrimidin-4-yl)piperazin-2-yl)acetonitrile] | 1 to 1000 nM
C=CC(=O)N1CCN(c2nc(OCCN(CC)CC)nc3c2CCN(c2cc(O)cc4ccccc24)C3)CC1 [Example 102] | 1 to 1000 nM
C=CC(=O)N1CCN(c2nc(OCCCN3CCCCC3)nc3c2CCN(c2cc(O)cc4ccccc24)C3)CC1 [Example 38, 1-(4-(7-(3-hydroxynaphthalen-1-yl)-2-(3-(piperidin-1-yl)propoxy)-5,6,7,8-tetrahydropyrido[3,4-d]pyrimidin-4-yl)piperazin-1-yl)prop-2-en-1-one] | 1 to 1000 nM
C=CC(=O)N1CCN(c2nc(OC[C@@H]3CCCN3C)nc3c2CCN(c2ccccc2F)C3)CC1CC#N (stereo partly drawn) [Example 227, 2-(1-acryloyl-4-(7-(2-fluorophenyl)-2-(((S)-1-methylpyrrolidin-2-yl)methoxy)-5,6,7,8-tetrahydropyrido[3,4-d]pyrimidin-4-yl)piperazin-2-yl)acetonitrile] | 1 to 1000 nM
C=CC(=O)N1CCN(c2nc(OC[C@@H]3CCCN3C)nc3c2CCN(c2ccccc2OC(F)(F)F)C3)CC1CC#N (stereo partly drawn) [Example 211, 2-(1-acryloyl-4-(2-(((S)-1-methylpyrrolidin-2-yl)methoxy)-7-(2-(trifluoromethoxy)phenyl)-5,6,7,8-tetrahydropyrido[3,4-d]pyrimidin-4-yl)piperazin-2-yl)acetonitrile] | 1 to 1000 nM
C=CC(=O)N1CCN(c2nc(OC[C@@H]3CCCN3CCOC)nc3c2CCN(c2cccc4ccccc24)C3)CC1CC#N (stereo partly drawn) [Example 266, 2-(1-acryloyl-4-(2-(((S)-1-(2-methoxyethyl)pyrrolidin-2-yl)methoxy)-7-(naphthalen-1-yl)-5,6,7,8-tetrahydropyrido[3,4-d]pyrimidin-4-yl)piperazin-2-yl)acetonitrile] | 1 to 1000 nM
C=CC(=O)N1CCN(c2nc(OC[C@@H]3CCCN3C)nc3c2CCN(c2c(F)cccc2C(F)(F)F)C3)CC1CC#N (stereo partly drawn) [Example 275, 2-(1-acryloyl-4-(7-(2-fluoro-6-(trifluoromethyl)phenyl)-2-(((S)-1-methylpyrrolidin-2-yl)methoxy)-5,6,7,8-tetrahydropyrido[3,4-d]pyrimidin-4-yl)piperazin-2-yl)acetonitrile] | 1 to 1000 nM
C=CC(=O)N1CCN(c2nc(O[C@H](C)CN(C)C)nc3c2CCN(c2c(C)ccc4[nH]ncc24)C3)CC1CC#N (stereo partly drawn) [Example 152, 2-[4-[2-[(1R)-2-(dimethylamino)-1-methyl-ethoxy]-7-(5-methyl-1H-indazol-4-yl)-6,8-dihydro-5H-pyrido[3,4-d]pyrimidin-4-yl]-1-prop-2-enoyl-piperazin-2-yl]acetonitrile] | 1 to 1000 nM
C=CC(=O)N1CCN(c2nc(OCCN3C[C@@H]4CC[C@H]3C4)nc3c2CCN(c2cc(O)cc4ccccc24)C3)CC1 [Example 77, 1-(4-(2-(2-((1S,4R)-2-azabicyclo[2.2.1]heptan-2-yl)ethoxy)-7-(3-hydroxynaphthalen-1-yl)-5,6,7,8-tetrahydropyrido[3,4-d]pyrimidin-4-yl)piperazin-1-yl)prop-2-en-1-one] | 1 to 1000 nM
C=CC(=O)N1CCN(c2nc(OCC3CN(C)CCO3)nc3c2CCN(c2cc(O)cc4ccccc24)C3)CC1 (stereo not shown) [Example 193, 1-(4-(7-(3-hydroxynaphthalen-1-yl)-2-((4-methylmorpholin-2-yl)methoxy)-5,6,7,8-tetrahydropyrido[3,4-d]pyrimidin-4-yl)piperazin-1-yl)prop-2-en-1-one] | 1 to 1000 nM
C=CC(=O)N1CCN(c2nc(OCCCN3CCCC3)nc3c2CCN(c2cc(O)cc4ccccc24)C3)CC1 [Example 39, 1-(4-(7-(3-hydroxynaphthalen-1-yl)-2-(3-(pyrrolidin-1-yl)propoxy)-5,6,7,8-tetrahydropyrido[3,4-d]pyrimidin-4-yl)piperazin-1-yl)prop-2-en-1-one] | 1 to 1000 nM
C=CC(=O)N1CCN(c2nc(OCCN(C)C)nc3c2CCN(c2cc(O)cc4ccccc24)C3)C[C@@H]1CC#N [Example 176, 2-[(2S)-4-[2-[2-(dimethylamino)ethoxy]-7-(3-hydroxy-1-naphthyl)-6,8-dihydro-5H-pyrido[3,4-d]pyrimidin-4-yl]-1-prop-2-enoyl-piperazin-2-yl]acetonitrile] | 1 to 1000 nM
C=CC(=O)N1CCN(c2nc(O[C@H](C)CN3CC[C@H](OC)C3)nc3c2CCN(c2cc(O)cc4ccccc24)C3)CC1 [Example 64, 1-(4-(7-(3-hydroxynaphthalen-1-yl)-2-(((R)-1-((S)-3-methoxypyrrolidin-1-yl)propan-2-yl)oxy)-5,6,7,8-tetrahydropyrido[3,4-d]pyrimidin-4-yl)piperazin-1-yl)prop-2-en-1-one] | 1 to 1000 nM
C=CC(=O)N1CCN(c2nc(OCC3CCN(C)C3)nc3c2CCN(c2cc(O)cc4ccccc24)C3)CC1 (stereo not shown) [Example 89, 1-(4-(7-(3-hydroxynaphthalen-1-yl)-2-((1-methylpyrrolidin-3-yl)methoxy)-5,6,7,8-tetrahydropyrido[3,4-d]pyrimidin-4-yl)piperazin-1-yl)prop-2-en-1-one] | 1 to 1000 nM
C=CC(=O)N1CCN(c2nc(O[C@H](C)CN(C)C)nc3c2CCN(c2cc(O)cc4ccccc24)C3)[C@@H](C)C1 [Example 115, 1-((S)-4-(2-(((R)-1-(dimethylamino)propan-2-yl)oxy)-7-(3-hydroxynaphthalen-1-yl)-5,6,7,8-tetrahydropyrido[3,4-d]pyrimidin-4-yl)-3-methylpiperazin-1-yl)prop-2-en-1-one] | 1 to 1000 nM
